Assay results from patent US11304929B2, “Tosylacetate based compounds and derivatives thereof as PHGDH inhibitors” (priority 2017, dated 2022).

target: PHGDH (Homo sapiens (Human), UniProt O43175); assay: 3-Phosphoglycerate Dehydrogenase (PHGDH) Fluorescence Intensity Assay, run at two NAD/3-PG ratios: PHGDH_HIGH_NAD/3-PG (250 μM NAD/500 μM 3-PG) and PHGDH_500_NAD/3-PG (500 μM NAD/500 μM 3-PG); type: biochemical; conditions: 250 μM NAD/500 μM 3-PG; read-out: IC50 (PHGDH_HIGH_NAD/3-PG)
Sequence (O43175 2-533 limits assumed): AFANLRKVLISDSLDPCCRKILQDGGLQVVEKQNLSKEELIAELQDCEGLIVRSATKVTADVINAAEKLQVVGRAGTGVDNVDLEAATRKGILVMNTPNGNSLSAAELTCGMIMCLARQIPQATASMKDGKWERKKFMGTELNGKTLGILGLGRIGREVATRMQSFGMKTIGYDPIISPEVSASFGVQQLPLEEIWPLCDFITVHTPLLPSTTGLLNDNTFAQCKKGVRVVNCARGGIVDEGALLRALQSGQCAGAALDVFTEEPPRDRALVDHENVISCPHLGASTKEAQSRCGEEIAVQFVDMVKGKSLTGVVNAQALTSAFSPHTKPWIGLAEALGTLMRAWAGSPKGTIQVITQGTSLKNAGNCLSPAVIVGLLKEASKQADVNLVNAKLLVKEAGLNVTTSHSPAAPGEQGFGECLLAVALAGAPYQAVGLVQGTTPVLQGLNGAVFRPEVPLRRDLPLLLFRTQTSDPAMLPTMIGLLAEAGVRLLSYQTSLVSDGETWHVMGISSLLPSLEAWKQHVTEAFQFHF

Compound	IC50 [nM]
COC(=O)CS(=O)(=O)c1ccc([C@@H](C)NC(=O)c2cc3c4ccccc4c(C)cc3n2C)cc1 [Example 01-010, methyl 2-{4-[(1R)-1-({3,5-dimethyl-3H-benzo[e]indol-2-yl}formamido)ethyl]benzenesulfonyl}acetate]	943
Cc1cc(Cl)c2cc(C(=O)N[C@H](CO)c3ccc(S(=O)(=O)CC(=O)OCC4(C)COC4)cc3)n(C)c2c1 [Example 09-031, (3-methyloxetan-3-yl)methyl 2-{4-[(1S)-1-[(4-chloro-1,6-dimethyl-1H-indol-2-yl)formamido]-2-hydroxyethyl]benzenesulfonyl}acetate]	61
COc1cc(-c2cc(C(=O)N[C@H](C)c3ccc(S(=O)(=O)CC(=O)OC(C)C)cc3)n(C)n2)ccc1F [Example 02-012, propan-2-yl 2-{4-[(1R)-1-{[3-(4-fluoro-3-methoxyphenyl)-1-methyl-1H-pyrazol-5-yl]formamido}ethyl]benzenesulfonyl}acetate]	3720
Cc1cc2c(cc(C(=O)N[C@H](CO)c3ccc([S@@+]([O-])CC(=O)OC(C)C)cc3)n2C)c(Cl)c1Cl [Example 13-002, propan-2-yl 2-[(S)-4-[(1S)-1-[(4,5-dichloro-1,6-dimethyl-1H-indol-2-yl)formamido]-2-hydroxyethyl]benzenesulfinyl]acetate]	819
C[C@@H](NC(=O)c1cc(-c2ccc(F)cc2)nn1C)c1ccc(S(=O)(=O)CC(=O)OCC2COC2)cc1 [Example 10-007, oxetan-3-ylmethyl 2-{4-[(1R)-1-{[3-(4-fluorophenyl)-1-methyl-1H-pyrazol-5-yl]formamido}ethyl]benzenesulfonyl}acetate]	714
COC(=O)C[S@+]([O-])c1ccc([C@@H](CO)NC(=O)c2cc3c(Cl)c(Cl)c(C)cc3n2C)cc1 [Example 11-003, methyl 2-[(S)-4-[(1S)-1-[(4,5-dichloro-1,6-dimethyl-1H-indol-2-yl)formamido]-2-hydroxyethyl]benzenesulfinyl]acetate]	89
COC(=O)C(C)(C)S(=O)(=O)c1ccc([C@@H](CO)NC(=O)c2cc(-c3ccc(F)cc3)nn2C)cc1 [Example 06-008, methyl 2-{4-[(1S)-1-{[3-(4-fluorophenyl)-1-methyl-1H-pyrazol-5-yl]formamido}-2-hydroxyethyl]benzenesulfonyl}-2-methylpropanoate]	8340
COC(=O)C(C)(C)S(=O)(=O)c1ccc([C@@H](C)NC(=O)c2cc3c(Cl)c(Cl)c(C)cc3n2C)cc1 [Example 05-022, methyl 2-{4-[(1R)-1-[(4,5-dichloro-1,6-dimethyl-1H-indol-2-yl)formamido]ethyl]benzenesulfonyl}-2-methylpropanoate]	5580
Cc1cc(Cl)c2cc(C(=O)N[C@H](C)c3ccc([S@@+]([O-])CC(=O)O)cc3)n(C)c2c1 [Example 12-006, 2-[(S)-4-[(1R)-1-[(4-chloro-1,6-dimethyl-1H-indol-2-yl)formamido]ethyl]benzenesulfinyl]acetic acid]	61
COC(=O)C1(S(=O)(=O)c2ccc([C@@H](C)NC(=O)c3cc4c(Cl)cc(C)cc4n3C)cc2)CCCC1 [Example 05-008, methyl 1-{4-[(1R)-1-[(4-chloro-1,6-dimethyl-1H-indol-2-yl)formamido]ethyl]benzenesulfonyl}cyclopentane-1-carboxylate]	18300
CCOC(=O)CS(=O)(=O)c1ccc([C@@H](C)NC(=O)c2cc3cc(Cl)c(-c4cnn(CCN5CCOCC5)c4)cc3n2C)cc1 [Example 01-025, ethyl 2-{4-[(1R)-1-[(5-chloro-1-methyl-6-{1-[2-(morpholin-4-yl)ethyl]-1H-pyrazol-4-yl}-1H-indol-2-yl)formamido]ethyl]benzenesulfonyl}acetate]	742
Cc1cc(Cl)c2cc(C(=O)N[C@H](C)c3ccc(S(=O)(=O)CC(=O)OCc4ccncc4)cc3)n(C)c2c1 [Example 09-010, pyridin-4-ylmethyl 2-{4-[(1R)-1-[(4-chloro-1,6-dimethyl-1H-indol-2-yl)formamido]ethyl]benzenesulfonyl}acetate]	175
C#Cc1cc(Cl)c2cc(C(=O)NC(C)c3ccc(S(=O)(=O)CC(=O)OC)cc3)n(C)c2c1 (centres unmarked) [Example 01-008, methyl 2-(4-{1-[(4-chloro-6-ethynyl-1-methyl-1H-indol-2-yl)formamido]ethyl}benzenesulfonyl)acetate]	1690
Cc1cc2c(cc(C(=O)N[C@H](CO)c3ccc(S(=O)(=O)CC(=O)OC(C)C)cc3)n2C)c(Cl)c1F [Example 01-035, propan-2-yl 2-{4-[(1S)-1-[(4-chloro-5-fluoro-1,6-dimethyl-1H-indol-2-yl)formamido]-2-hydroxyethyl]benzenesulfonyl}acetate]	466
Cc1cc(Cl)c2cc(C(=O)N[C@H](C)c3ccc(S(=O)(=O)CC(=O)O[C@@H]4CCOC4)cc3)n(C)c2c1 [Example 09-019, (3R)-oxolan-3-yl 2-{4-[(1R)-1-[(4-chloro-1,6-dimethyl-1H-indol-2-yl)formamido]ethyl]benzenesulfonyl}acetate]	250
COCCOC(=O)CS(=O)(=O)c1ccc([C@@H](C)NC(=O)c2cc3cc(C(F)(F)F)ccc3n2C)cc1 [Example 09-008, 2-methoxyethyl 2-{4-[(1R)-1-{[1-methyl-5-(trifluoromethyl)-1H-indol-2-yl]formamido}ethyl]benzenesulfonyl}acetate]	3460
Cc1cc(Cl)c2cc(C(=O)N[C@H](CO)c3ccc(S(=O)(=O)CC(=O)O)cc3)n(C)c2n1 [Example 03-013, 2-{4-[(1S)-1-({4-chloro-1,6-dimethyl-1H-pyrrolo[2,3-b]pyridin-2-yl}formamido)-2-hydroxyethyl]benzenesulfonyl}acetic acid]	35
COC(=O)C(C)(C)S(=O)(=O)c1ccc([C@@H](C)NC(=O)c2cc3c(Cl)cc(C)cc3n2C)cc1 [Example 05-007, methyl 2-{4-[(1R)-1-[(4-chloro-1,6-dimethyl-1H-indol-2-yl)formamido]ethyl]benzenesulfonyl}-2-methylpropanoate]	4520
C[C@@H](NC(=O)c1cc(-c2ccccc2)nn1C)c1ccc(S(=O)(=O)CC(=O)OCCN(C)C)cc1 [Example 10-002, 2-(dimethylamino)ethyl 2-{4-[(1R)-1-[(1-methyl-3-phenyl-1H-pyrazol-5-yl)formamido]ethyl]benzenesulfonyl}acetate]	497
C[C@@H](NC(=O)c1cc(-c2ccc(F)cc2)nn1C)c1ccc(S(=O)(=O)C2(C(=O)O)CCOCC2)cc1 [Example 08-003, 4-{4-[(1R)-1-{[3-(4-fluorophenyl)-1-methyl-1H-pyrazol-5-yl]formamido}ethyl]benzenesulfonyl}oxane-4-carboxylic acid]	139
Cn1nc(-c2ccc(F)cc2)cc1C(=O)N[C@H](CO)c1ccc(S(=O)(=O)CC(=O)O)cc1 [Example 04-004, 2-{4-[(1S)-1-{[3-(4-fluorophenyl)-1-methyl-1H-pyrazol-5-yl]formamido}-2-hydroxyethyl]benzenesulfonyl}acetic acid]	174
Cc1cc(Cl)c2cc(C(=O)N[C@H](C)c3ccc(S(=O)(=O)CC(=O)O)cc3)n(C)c2n1 [Example 03-015, 2-{4-[(1R)-1-({4-chloro-1,6-dimethyl-1H-pyrrolo[2,3-b]pyridin-2-yl}formamido)ethyl]benzenesulfonyl}acetic acid]	41
CCC(CC)(C(=O)O)S(=O)(=O)c1ccc([C@@H](C)NC(=O)c2cc3c(Cl)cc(C)cc3n2C)cc1 [Example 07-001, 2-{4-[(1R)-1-[(4-chloro-1,6-dimethyl-1H-indol-2-yl)formamido]ethyl]benzenesulfonyl}-2-ethylbutanoic acid]	10
COC(=O)C[S@@+]([O-])c1ccc([C@@H](CO)NC(=O)c2cc3c(Cl)cc(C)cc3n2C)cc1 [Example 11-010, methyl 2-[(R)-4-[(1S)-1-[(4-chloro-1,6-dimethyl-1H-indol-2-yl)formamido]-2-hydroxyethyl]benzenesulfinyl]acetate]	447
CC(=O)OCC(COC(C)=O)COC(=O)CS(=O)(=O)c1ccc([C@@H](C)NC(=O)c2cc3c(Cl)cc(C)cc3n2C)cc1 [Example 09-022, 3-(acetyloxy)-2-[(acetyloxy)methyl]propyl 2-{4-[(1R)-1-[(4-chloro-1,6-dimethyl-1H-indol-2-yl)formamido]ethyl]benzenesulfonyl}acetate]	431
Cc1nc2c(cc(C(=O)N[C@H](C)c3ccc(S(=O)(=O)CC(=O)O)cc3)n2C)c(Cl)c1Cl [Example 03-010, 2-{4-[(1R)-1-({4,5-dichloro-1,6-dimethyl-1H-pyrrolo[2,3-b]pyridin-2-yl}formamido)ethyl]benzenesulfonyl}acetic acid]	170
Cc1cc2c(cc(C(=O)N[C@H](CO)c3ccc(S(=O)(=O)CC(=O)OC(C)C)cc3)n2C)c(F)c1F [Example 01-039, propan-2-yl 2-{4-[(1S)-1-[(4,5-difluoro-1,6-dimethyl-1H-indol-2-yl)formamido]-2-hydroxyethyl]benzenesulfonyl}acetate]	1120
C[C@@H](NC(=O)c1cc(-c2ccc(F)cc2)nn1C)c1ccc(S(=O)(=O)CC(=O)OCCO)cc1 [Example 10-005, 2-hydroxyethyl 2-{4-[(1R)-1-{[3-(4-fluorophenyl)-1-methyl-1H-pyrazol-5-yl]formamido}ethyl]benzenesulfonyl}acetate]	766
COC(=O)C[S+]([O-])c1ccc([C@@H](CO)NC(=O)c2cc3c(Cl)cc(C)cc3n2C)cc1 (stereo partly drawn) [Example 11-005, methyl 2-{4-[(1S)-1-[(4-chloro-1,6-dimethyl-1H-indol-2-yl)formamido]-2-hydroxyethyl]benzenesulfinyl}acetate]	221

same assay, conditions: 500 μM NAD/500 μM 3-PG; read-out: IC50 (PHGDH_500_NAD/3-PG)

Compound	IC50 [nM]
Cc1cc2c(cc(C(=O)N[C@H](CO)c3ccc([S@@+]([O-])CC(=O)OC(C)C)cc3)n2C)c(Cl)c1Cl [Example 13-002, propan-2-yl 2-[(S)-4-[(1S)-1-[(4,5-dichloro-1,6-dimethyl-1H-indol-2-yl)formamido]-2-hydroxyethyl]benzenesulfinyl]acetate]	1020
COC(=O)C[S@+]([O-])c1ccc([C@@H](CO)NC(=O)c2cc3c(Cl)c(Cl)c(C)cc3n2C)cc1 [Example 11-003, methyl 2-[(S)-4-[(1S)-1-[(4,5-dichloro-1,6-dimethyl-1H-indol-2-yl)formamido]-2-hydroxyethyl]benzenesulfinyl]acetate]	137
Cc1cc(Cl)c2cc(C(=O)N[C@H](C)c3ccc([S@@+]([O-])CC(=O)O)cc3)n(C)c2c1 [Example 12-006, 2-[(S)-4-[(1R)-1-[(4-chloro-1,6-dimethyl-1H-indol-2-yl)formamido]ethyl]benzenesulfinyl]acetic acid]	95
Cc1cc2c(cc(C(=O)N[C@H](CO)c3ccc(S(=O)(=O)CC(=O)OCC(C)(C)O)cc3)n2C)c(F)c1F [Example 09-043, 2-hydroxy-2-methylpropyl 2-{4-[(1S)-1-[(4,5-difluoro-1,6-dimethyl-1H-indol-2-yl)formamido]-2-hydroxyethyl]benzenesulfonyl}acetate]	246
Cn1nc(-c2ccc(F)cc2)cc1C(=O)N[C@H](CO)c1ccc(S(=O)(=O)CC(=O)O)cc1 [Example 04-004, 2-{4-[(1S)-1-{[3-(4-fluorophenyl)-1-methyl-1H-pyrazol-5-yl]formamido}-2-hydroxyethyl]benzenesulfonyl}acetic acid]	299
CCC(CC)(C(=O)O)S(=O)(=O)c1ccc([C@@H](C)NC(=O)c2cc3c(Cl)cc(C)cc3n2C)cc1 [Example 07-001, 2-{4-[(1R)-1-[(4-chloro-1,6-dimethyl-1H-indol-2-yl)formamido]ethyl]benzenesulfonyl}-2-ethylbutanoic acid]	14
